Reference: US6828315B1, “1-Amino triazoloc4,3-a! quinazoline-5-ones and/or -5-thiones inhibiting phosphodiesterase IV” (Warner-Lambert LLC, priority 1999, dated 2004)

What was measured:
[1] = target: type 4 phosphodiesterases (PDE4); assay: Inhibition of the phosphodiesterase (PDE4), enzymatic preparation from line U937; assay type: biochemical; settings: PDE4 from cytosolic preparation of human cell line U937
Description: The capacity of the formula (I) compounds of the invention to inhibit the cyclic nucleotide phosphodiesterases is evaluated by their Cl50 measurement (necessary concentration to inhibit 50% of enzymatic activity).
The type 4 phosphodiesterases are obtained from a cytosolic preparation extracted from the human origin cellular line U937 according to a method adapted from T. J. Torphy and al., 1992, J.Pharm.Exp. Ther. 263: 1195-1205
The other classes of phosphodiesterases are obtained after partial purification FPLC on Mono Q column. (anion exchange column) according to a method adapted from Lavan B. E., Lakey T., Houslay M. D. Biochemical Pharmacology, 1989, 38(22), 4123-4136., and from Silver P. J and al., 1988, Eur.J. Pharmacol. 150: 85-94, either, from human origin cellular lines for PDE 1 (monocytar line TPH1) and PDE5 (line MCF7 issued from an adenocarcinoma), or from dog aorta for PDE 3, or for the human PDE3A, from gene cloning in insect cells SF21 in baculovirus, according to a method adapted from Luckow, V. A. and al., 1991 in Recombinant DNA Technology&Applications.,eds. Prokop, Bajpai,R. K.&Ho,C. S., pp97-152. The enzymatic activity measurement of the different PDE classes, and in particular the PDE 4, is performed according to a method adapted from W. J. Thompson and al. 1979, Advances in Cyclic Nucleotide Research, Vol. 10: 69-92, ed. G. Brooker and al. Raven Press, NY.
For the Cl50 determination, the enzymatic activity is measured in the presence of inhibitor within concentration margins of 0.1 to 100 μM.
The following table illustrates the PDE4 inhibitory activity from enzymatic preparation obtained from the line U937.

[2] = system: TNFα production in plasma; assay: In vivo TNFα model in Wistar rat; settings: po, 1.5 h, 10 mg/kg p.o. 30 min before LPS i.p., plasma TNFα 90 min after LPS, male Wistar rats, read-out: % Inhibition to 10 mg/kg
Source text: The TFNα is a cytokin playing a central role in inflammation mechanisms. Its production may be induced by injection of lipopolysaccharid (LPS). It has been shown that the intracellular AMPc increase, produced in particular by PDE4 inhibitors, decreases the TNFα production in in vitro and in vivo models. Therefore it matters here to quantify in vivo anti-inflammatory potential of the compounds of the invention, administrated by oral route (p.o.) by measuring inhibition of TNFα production in plasma in rat, the latter having received a intraperitoneal injection (i.p.) of lipolysaccharid (LPS). The treatment by the compounds of the invention or the carrier is administrated by oral route in male Wistar rats, 30 min. before LPS injection. The rats are sacrificed 90 min. after LPS stimulation, the blood is harvested on EDTA and TNFα concentration is measured in each plasma sample.

Compound | melting point | IC50 [1] [nM] | change in vivo at 10 mg/kg [2] [%]
N#Cc1ccc(Cn2c(=O)c3cc(Br)ccc3n3c(N4CCCC4)nnc23)cc1 [Compound 46, 4-(7-Bromo-5-oxo-1-pyrrolidin-1-yl-5H-[1,2,4]triazolo[4,3-a]quinazolin-4-ylmethyl)-benzonitrile] | 116 °C | 90 | -58
CN(C)c1nnc2n(Cc3ccc(O)cc3)c(=O)c3cc(Br)ccc3n12 [Compound 80, 7-Bromo-1-dimethylamino-4-(4-hydroxy-benzyl)-4H-[1,2,4]triazolo[4,3-a]quinazolin-5-one] | 284 °C | 73 | 
Cc1ccc2c(c1)c(=O)n(Cc1cccnc1)c1nnc(N3CCCCCC3)n21 [Compound 91, 1-Azepan-1-yl-7-methyl-4-pyridin-3-ylmethyl-4H-[1,2,4]triazolo[4,3-a]quinazolin-5-one] | 175 °C |  | -70
COC(=O)C(c1ccccc1)n1nc(N(C)C)n2c3ccc(Br)cc3c(=O)nc12 (stereo not drawn) [Compound 156, (7-Bromo-1-dimethylamino-5-oxo-5H-[1,2,4]triazolo[4,3-a]quinazolin-3-yl)-phenyl-acetic acid methyl ester] | 83 °C | 90 | 
O=c1c2cc(Br)ccc2n2c(N3CCCCCC3)nnc2n1Cc1ccccc1 [Compound 163, 1-(azepan-1-yl)-4-benzyl-7-bromo-4H-[1,2,4]triazolo[4,3-a]-quinazolin-5-one] |  |  | -64
O=c1c2cc(I)ccc2n2c(N3CCCC3)nnc2n1Cc1ccccc1 [Compound 189, 4-Benzyl-7-iodo-1-pyrrolidin-1-yl-4H-[1,2,4]triazolo[4,3-a]quinazolin-5-one] | 184 °C | 78 | 
Cc1ccc2c(c1)c(=O)n(Cc1ccccc1)c1nnc(N3CCCCCC3)n21 [Compound 190, 1-Azepan-1-yl-4-benzyl-7-methyl-4H-[1,2,4]triazolo[4,3-a]quinazolin-5-one] | 183 °C | 190 | 
Nc1ccc2c(c1)c(=O)n(Cc1ccccc1)c1nnc(N3CCCCCC3)n21 [Compound 224, 7-Amino-1-azepan-1-yl-4-benzyl-4H-[1,2,4]triazolo[4,3-a]quinazolin-5-one] | 240 °C (dec.) | 75 | 
CN(C)c1nnc2n(C/C=C/c3ccccc3)c(=O)c3cc(N)ccc3n12 [Compound 229, 7-Amino-1-dimethylamino-4-((E)-3-phenyl-allyl)-4H-[1,2,4]triazolo[4,3-a]quinazolin-5-one] | 198 °C | 80 | 
CCNc1ccc2c(c1)c(=O)n(Cc1ccccc1)c1nnc(N3CCCC3)n21 [Compound 233, 4-Benzyl-7-ethylamino-1-pyrrolidin-1-yl-4H-[1,2,4]triazolo[4,3-a]quinazolin-5-one] | 225 °C | 180 | 

The remaining compounds from weak to strong by IC50 [1], led by results:

melting point | IC50 [1] [nM] | Compound | change in vivo at 10 mg/kg [2] [%]
262 °C | 58 | Cc1ccc2c(c1)c(=O)n(Cc1ccc(CC(=O)O)cc1)c1nnc(N3CCCC3)n21 [Compound 96, [4-(7-Methyl-5-oxo-1-pyrrolidin-1-yl-5H-[1,2,4]triazolo[4,3-a]quinazolin-4-ylmethyl)-phenyl]-acetic acid] | 
133 °C | 41 | Cc1ccc2c(c1)c(=S)n(CC=Cc1cccnc1)c1nnc(N(C)C)n21 [Compound 246, 1-Dimethylamino-7-methyl-4-(3-pyridin-3-yl-allyl)-4H-[1,2,4]triazolo[4,3-a]quinazoline-5-thione] | 
195 °C | 30 | Cc1ccc2c(c1)c(=O)n(CC=Cc1ccccc1)c1nnc(N3CCCCCC3)n21 [Compound 92, 1-Azepan-1-yl-7-methyl-4-(3-phenyl-allyl)-4H-[1,2,4]triazolo[4,3-a]quinazolin-5-one] | 
173 °C | 29 | Cc1ccc2c(c1)c(=O)n(CC=Cc1ccccc1)c1nnc(N3CCCC3)n21 [Compound 98, 7-Methyl-4-(3-phenyl-allyl)-1-pyrrolidin-1-yl-4H-[1,2,4]triazolo[4,3-a]quinazolin-5-one] | -75
201 °C | 28 | Nc1ccc2c(c1)c(=O)n(C/C=C/c1cccnc1)c1nnc(N3CCCC3)n21 [Compound 227, 7-Amino-4-((E)-3-pyridin-3-yl-allyl)-1-pyrrolidin-1-yl-4H-[1,2,4]triazolo[4,3-a]quinazolin-5-one] | 
229 °C | 28 | O=C(Cc1ccc(Cn2c(=O)c3cc(Br)ccc3n3c(N4CCCC4)nnc23)cc1)NO [Compound 243, 2-[4-(7-Bromo-5-oxo-1-pyrrolidin-1-yl-5H-[1,2,4]triazolo[4,3-a]quinazolin-4-ylmethyl)-phenyl]-N-hydroxy-acetamide] | 
159 °C | 27 | CN(C)c1nnc2n(CC#Cc3ccccc3)c(=O)c3cc(Br)ccc3n12 [Compound 89, 7-Bromo-1-dimethylamino-4-(3-phenyl-prop-2-ynyl)-4H-[1,2,4]triazolo[4,3-a]quinazolin-5-one] | 
185 °C | 20 | COc1ccc(Cn2c(=O)c3cc(Br)ccc3n3c(N4CCCCCC4)nnc23)cc1OC [Compound 35, 1-Azepan-1-yl-7-bromo-4-(3,4-dimethoxy-benzyl)-4H-[1,2,4]triazolo[4,3-a]quinazolin-5-one] | -51
197 °C | 16 | COC(=O)c1ccc(Cn2c(=O)c3cc(Br)ccc3n3c(N(C)C)nnc23)cc1 [Compound 81, 4-(7-Bromo-1-dimethylamino-5-oxo-5H-[1,2,4]triazolo[4,3-a]quinazolin-4-ylmethyl)-benzoic acid methyl ester] | 
230 °C | 12 | CN(C)c1nnc2n(Cc3ccc(CC#N)cc3)c(=O)c3cc(Br)ccc3n12 [Compound 83, [4-(7-Bromo-1-dimethylamino-5-oxo-5H-[1,2,4]triazolo[4,3-a]quinazolin-4-ylmethyl)-phenyl]-acetonitrile] | 
202 °C | 11 | CN(C)C(=O)Cc1ccc(Cn2c(=O)c3cc(Br)ccc3n3c(N4CCCC4)nnc23)cc1 [Compound 242, 2-[4-(7-Bromo-5-oxo-1-pyrrolidin-1-yl-5H-[1,2,4]triazolo[4,3-a]quinazolin-4-ylmethyl)-phenyl]-N,N-dimethyl-acetamide] | 
171 °C | 2 | CNc1ccc2c(c1)c(=O)n(Cc1ccccc1)c1nnc(N3CCCC3)n21 [Compound 230, 4-Benzyl-7-methylamino-1-pyrrolidin-1-yl-4H-[1,2,4]triazolo[4,3-a]quinazolin-5-one] | 
270 °C | 0.27 | CNc1ccc2c(c1)c(=O)n(Cc1ccc(C#N)cc1)c1nnc(N3CCCC3)n21 [Compound 231, 4-(7-Methylamino-5-oxo-1-pyrrolidin-1-yl-5H-[1,2,4]triazolo[4,3-a]quinazolin-4-ylmethyl)-benzonitrile] | 
